Measurements taken from ChEMBL document CHEMBL6096689, “Structure-Guided Development of ClpP Agonists with Potent Therapeutic Activities against Staphylococcus aureus Infection” (J Med Chem, 2025).
Converted amounts (≈) assume the structure as drawn. One block for each compound: values may come before it. The source made the active and inactive calls. No cut-off for these calls is given here.

Legend:
Staphylococcus aureus [1] = experiment: microbe, parasite or virus in culture; format: functional; conditions: Newman, time 18 hrs
Description: Antibacterial activity against Staphylococcus aureus Newman assessed as inhibition of visible growth of bacteria incubated for 18 hrs by absorbance based analysis

Staphylococcus aureus [2] = experiment: microbe, parasite or virus in culture; format: functional; conditions: USA300, time 18 hrs
Description: Antibacterial activity against methicillin-resistant Staphylococcus aureus USA300 assessed as inhibition of visible growth of bacteria incubated for 18 hrs by absorbance based analysis

Staphylococcus aureus [3] = experiment: microbe, parasite or virus in culture; format: functional; conditions: NRS-1, time 18 hrs
Description: Antibacterial activity against methicillin-resistant Staphylococcus aureus NRS-1 assessed as inhibition of visible growth of bacteria incubated for 18 hrs by absorbance based analysis

Staphylococcus aureus [4] = experiment: microbe, parasite or virus in culture; format: functional; conditions: NRS-70, time 18 hrs
Description: Antibacterial activity against methicillin-resistant Staphylococcus aureus NRS-70 assessed as inhibition of visible growth of bacteria incubated for 18 hrs by absorbance based analysis

Staphylococcus aureus [5] = experiment: microbe, parasite or virus in culture; format: functional; conditions: NRS-108, time 18 hrs
Description: Antibacterial activity against methicillin-resistant Staphylococcus aureus NRS-108 assessed as inhibition of visible growth of bacteria incubated for 18 hrs by absorbance based analysis

Staphylococcus aureus [6] = experiment: microbe, parasite or virus in culture; format: functional; conditions: NRS-271, time 18 hrs
Description: Antibacterial activity against methicillin-resistant Staphylococcus aureus NRS-271 assessed as inhibition of visible growth of bacteria incubated for 18 hrs by absorbance based analysis

Staphylococcus aureus [7] = experiment: microbe, parasite or virus in culture; format: functional; conditions: time 18 hrs
Description: Antibacterial activity against multidrug-resistant Staphylococcus aureus clinical isolate XJ009 assessed as inhibition of visible growth of bacteria incubated for 18 hrs by absorbance based analysis

Staphylococcus aureus [8] = experiment: microbe, parasite or virus in culture; format: functional; conditions: time 18 hrs; remark: listed apart in the source
Description: Antibacterial activity against multidrug-resistant Staphylococcus aureus clinical isolate XJ025 assessed as inhibition of visible growth of bacteria incubated for 18 hrs by absorbance based analysis

Staphylococcus aureus [9] = experiment: microbe, parasite or virus in culture; format: functional; conditions: time 18 hrs; remark: listed apart in the source
Description: Antibacterial activity against multidrug-resistant Staphylococcus aureus clinical isolate XJ049 assessed as inhibition of visible growth of bacteria incubated for 18 hrs by absorbance based analysis

Staphylococcus aureus [10] = experiment: microbe, parasite or virus in culture; format: functional; conditions: time 18 hrs; remark: listed apart in the source
Description: Antibacterial activity against multidrug-resistant Staphylococcus aureus clinical isolate XJ051 assessed as inhibition of visible growth of bacteria incubated for 18 hrs by absorbance based analysis

Staphylococcus aureus [11] = experiment: microbe, parasite or virus in culture; format: functional; conditions: time 18 hrs; remark: listed apart in the source
Description: Antibacterial activity against multidrug-resistant Staphylococcus aureus clinical isolate XJ052 assessed as inhibition of visible growth of bacteria incubated for 18 hrs by absorbance based analysis

[12] = target: T1, ATP-dependent Clp protease proteolytic subunit (Staphylococcus aureus (strain NCTC 8325), UniProt Q2G036); experiment: Agonist activity at Staphylococcus aureus ClpP extracted from Escherichia coli BL21 (DE3) cells using alpha-casein as substrate assessed as substrate hydrolysis preincubated for 15 mins followed by substrate addition and measured after 2 hrs by SDS-PAGE analysis
T1 sequence (Q2G036 whole entry): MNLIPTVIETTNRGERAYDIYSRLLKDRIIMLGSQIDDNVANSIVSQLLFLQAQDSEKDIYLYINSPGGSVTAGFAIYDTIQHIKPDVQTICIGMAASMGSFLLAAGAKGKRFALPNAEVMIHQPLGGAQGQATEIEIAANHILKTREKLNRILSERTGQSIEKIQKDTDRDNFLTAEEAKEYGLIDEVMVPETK

[13] = Octanol/water partition coefficient, log P of the compound at pH 7.4 incubated for 24 hrs by LC-MS analysis; format: physicochemical
Staphylococcus aureus [14] = experiment: Antibacterial activity against oxacillin-resistant Staphylococcus aureus clinical isolate XJ049 infected in female ICR mouse peritonitis model assessed as mouse survival at 50 mg/kg, ip pre-infected for 1 hrs followed by compound addition and measured after 5 days relative to control; format: functional; conditions: 120 h, time 5 day
Staphylococcus aureus [15] = experiment: Antibacterial activity against methicillin resistant Staphylococcus aureus NRS 119 by CLSI protocol based broth microdilution method; format: functional
[16] = Cytotoxicity against HEK293T/17 cells by MTT assay; format: toxicity, cell-based; conditions: human
[17] = Therapeutic index, ratio of IC50 for HEK293T/17 cells to MIC for methicillin resistant Staphylococcus aureus NRS 119; format: toxicity, cell-based; conditions: human, read-out: TI
[18] = Therapeutic index, ratio of IC50 for HEK293T/17 cells to MIC for Staphylococcus aureus Newman; format: toxicity, cell-based; conditions: human, read-out: TI
[19] = target: T1, ATP-dependent Clp protease proteolytic subunit; experiment: Agonist activity at Staphylococcus aureus ClpP extracted from Escherichia coli BL21 (DE3) cells using FITC-casein as substrate assessed as substrate hydrolysis preincubated for 60 mins followed by substrate addition and measured after 1 hrs by fluorescence based analysis
[20] = target: T2, ATP-dependent Clp protease proteolytic subunit, mitochondrial (Homo sapiens, UniProt Q16740); experiment: Agonist activity at human ClpP extracted from Escherichia coli Rosetta (DE3) cells using alpha-casein as substrate assessed as substrate hydrolysis preincubated for 15 mins followed by substrate addition and measured after 2 hrs by SDS-PAGE analysis
[21] = target: ATP-dependent Clp protease proteolytic subunit (Escherichia coli (strain K12), UniProt P0A6G7); experiment: Agonist activity at Escherichia coli ClpP using alpha-casein as substrate assessed as substrate hydrolysis preincubated for 15 mins followed by substrate addition and measured after 2 hrs by SDS-PAGE analysis
[22] = Agonist activity at Lactobacillus acidophilus ClpP using alpha-casein as substrate assessed as substrate hydrolysis preincubated for 15 mins followed by substrate addition and measured after 2 hrs by SDS-PAGE analysis
[23] = target: T3, ATP-dependent Clp protease proteolytic subunit (Staphylococcus aureus (strain NCTC 8325)) (UniProt Q2G036); experiment: Induction of thermal stabilization of Staphylococcus aureus ClpP extracted from Escherichia coli BL21 (DE3) cells assessed as change in melting temperature at 10 uM incubated for 10 mins by DSF analysis
T3 sequence (whole entry): T1 sequence (Q2G036 whole entry)

[24] = target: T2, ATP-dependent Clp protease proteolytic subunit, mitochondrial; experiment: Induction of thermal stabilization of human ClpP extracted from Escherichia coli Rosetta (DE3) cells assessed as change in melting temperature at 10 uM incubated for 10 mins by DSF analysis
[25] = Therapeutic index, ratio of IC50 for HK-2 cells to MIC for Staphylococcus aureus Newman; format: toxicity, cell-based; conditions: human, read-out: TI
[26] = Therapeutic index, ratio of IC50 for human ARH-77 cells to MIC for Staphylococcus aureus Newman; format: toxicity, cell-based; conditions: read-out: TI
Staphylococcus aureus [27] = experiment: Antibacterial activity against Staphylococcus aureus USA300 infected in Zebrafish infection model assessed as increase in zebrafish survival at 5 to 25 mg/kg pre-infected for 1 hrs followed by compound addition and measured after 5 days; format: functional, organism-based; conditions: dose 5-25 mg/kg, time 5.0 day

T2 sequence (Q16740 whole entry): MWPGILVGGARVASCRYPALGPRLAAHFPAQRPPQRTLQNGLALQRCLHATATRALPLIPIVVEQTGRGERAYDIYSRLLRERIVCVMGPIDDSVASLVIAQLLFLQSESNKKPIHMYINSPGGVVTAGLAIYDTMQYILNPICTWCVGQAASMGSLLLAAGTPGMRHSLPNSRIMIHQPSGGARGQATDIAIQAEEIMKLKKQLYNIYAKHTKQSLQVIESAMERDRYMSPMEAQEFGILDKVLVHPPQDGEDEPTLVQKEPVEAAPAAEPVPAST
Sequence of ATP-dependent Clp protease proteolytic subunit (Escherichia coli (strain K12), UniProt P0A6G7) (P0A6G7 whole entry): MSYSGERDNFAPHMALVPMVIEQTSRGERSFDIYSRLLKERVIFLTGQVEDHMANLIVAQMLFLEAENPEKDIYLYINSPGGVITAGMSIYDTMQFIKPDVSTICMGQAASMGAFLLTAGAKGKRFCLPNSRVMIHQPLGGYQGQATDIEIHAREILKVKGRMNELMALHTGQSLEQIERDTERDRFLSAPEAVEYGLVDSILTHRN

Compound: CC[C@H]1OC(=O)[C@H](C)[C@@H](O[C@H]2C[C@@](C)(OC)[C@@H](O)[C@H](C)O2)[C@H](C)[C@@H](O[C@@H]2O[C@H](C)C[C@H](N(C)C)[C@H]2O)[C@](C)(O)C[C@@H](C)C(=O)[C@H](C)[C@@H](O)[C@]1(C)O [ERYTHROMYCIN]
MIC (Staphylococcus aureus [1]): 0.13 µg/mL (≈ 0.177 µM)
MIC (Staphylococcus aureus [2]): 8 µg/mL (≈ 10.9 µM)
MIC (Staphylococcus aureus [3]): > 128 µg/mL
MIC (Staphylococcus aureus [4]): > 128 µg/mL
MIC (Staphylococcus aureus [5]): > 128 µg/mL
MIC (Staphylococcus aureus [6]): 0.25 µg/mL (≈ 0.341 µM)
MIC (Staphylococcus aureus [7]): > 128 µg/mL
MIC (Staphylococcus aureus [8]): 1 µg/mL (≈ 1.36 µM)
MIC (Staphylococcus aureus [9]): > 128 µg/mL
MIC (Staphylococcus aureus [10]): 8 µg/mL (≈ 10.9 µM)
MIC (Staphylococcus aureus [11]): > 128 µg/mL

Compound: CCn1cc(C(=O)O)c(=O)c2cc(F)c(N3CCNCC3)cc21 [NORFLOXACIN]
MIC (Staphylococcus aureus [1]): 0.25 µg/mL (≈ 0.783 µM)
MIC (Staphylococcus aureus [2]): 16 µg/mL (≈ 50.1 µM)
MIC (Staphylococcus aureus [3]): 64 µg/mL (≈ 200 µM)
MIC (Staphylococcus aureus [4]): 1 µg/mL (≈ 3.13 µM)
MIC (Staphylococcus aureus [5]): 32 µg/mL (≈ 100 µM)
MIC (Staphylococcus aureus [6]): > 128 µg/mL
MIC (Staphylococcus aureus [7]): > 128 µg/mL
MIC (Staphylococcus aureus [8]): > 128 µg/mL
MIC (Staphylococcus aureus [9]): > 128 µg/mL
MIC (Staphylococcus aureus [10]): > 128 µg/mL
MIC (Staphylococcus aureus [11]): > 128 µg/mL

EC50 [12]: 0.5 µM
MIC (Staphylococcus aureus [1]): > 128 µg/mL
logD at 24 h [13]: 3.09
Compound: O=C1[C@H](Cc2cnc[nH]2)N2C(=O)CCN(C(=O)NCc3ccccc3)[C@H]2CN1Cc1cccc2ccccc12

Compound: NC[C@H]1O[C@H](O[C@H]2[C@H](O)[C@@H](O[C@H]3O[C@H](CO)[C@@H](O)[C@H](N)[C@H]3O)[C@H](N)C[C@@H]2N)[C@H](O)[C@@H](O)[C@@H]1O [KANAMYCIN]
MIC (Staphylococcus aureus [1]): 4 µg/mL (≈ 8.26 µM)
MIC (Staphylococcus aureus [2]): > 128 µg/mL
MIC (Staphylococcus aureus [3]): > 128 µg/mL
MIC (Staphylococcus aureus [4]): 64 µg/mL (≈ 132 µM)
MIC (Staphylococcus aureus [5]): 64 µg/mL (≈ 132 µM)
MIC (Staphylococcus aureus [6]): 2 µg/mL (≈ 4.13 µM)
MIC (Staphylococcus aureus [7]): > 128 µg/mL
MIC (Staphylococcus aureus [8]): > 128 µg/mL
MIC (Staphylococcus aureus [9]): > 128 µg/mL
MIC (Staphylococcus aureus [10]): > 128 µg/mL
MIC (Staphylococcus aureus [11]): > 128 µg/mL

Compound: Cc1onc(-c2ccccc2)c1C(=O)N[C@@H]1C(=O)N2[C@@H]1SC(C)(C)[C@@H]2C(=O)O [OXACILLIN]
MIC (Staphylococcus aureus [1]): 0.13 µg/mL (≈ 0.324 µM)
MIC (Staphylococcus aureus [2]): 0.25 µg/mL (≈ 0.623 µM)
MIC (Staphylococcus aureus [3]): 64 µg/mL (≈ 159 µM)
MIC (Staphylococcus aureus [4]): 0.25 µg/mL (≈ 0.623 µM)
MIC (Staphylococcus aureus [5]): 0.25 µg/mL (≈ 0.623 µM)
MIC (Staphylococcus aureus [6]): 32 µg/mL (≈ 79.7 µM)
MIC (Staphylococcus aureus [7]): > 128 µg/mL
MIC (Staphylococcus aureus [8]): 32 µg/mL (≈ 79.7 µM)
MIC (Staphylococcus aureus [9]): > 128 µg/mL
MIC (Staphylococcus aureus [10]): > 128 µg/mL
MIC (Staphylococcus aureus [11]): > 128 µg/mL
survival at 50 mg/kg (Staphylococcus aureus [14]): 56%

Compound: CCC[C@@H]1C[C@@H](C(=O)N[C@@H]([C@H]2O[C@H](SC)[C@H](O)[C@@H](O)[C@H]2O)[C@H](C)Cl)N(C)C1 [CLINDAMYCIN]
MIC (Staphylococcus aureus [1]): 0.016 µg/mL (≈ 0.0376 µM)
MIC (Staphylococcus aureus [2]): 0.008 µg/mL (≈ 0.0188 µM)
MIC (Staphylococcus aureus [3]): 64 µg/mL (≈ 151 µM)
MIC (Staphylococcus aureus [4]): 128 µg/mL (≈ 301 µM)
MIC (Staphylococcus aureus [5]): 128 µg/mL (≈ 301 µM)
MIC (Staphylococcus aureus [6]): 0.016 µg/mL (≈ 0.0376 µM)
MIC (Staphylococcus aureus [7]): 128 µg/mL (≈ 301 µM)
MIC (Staphylococcus aureus [8]): 0.016 µg/mL (≈ 0.0376 µM)
MIC (Staphylococcus aureus [9]): > 128 µg/mL
MIC (Staphylococcus aureus [10]): 0.016 µg/mL (≈ 0.0376 µM)
MIC (Staphylococcus aureus [11]): > 128 µg/mL

Compound: C[C@@H]1C[C@H]2C(=O)OC[C@H](NC(=O)[C@H](Cc3cc(F)cc(F)c3)NC(=O)CCC3CCCCC3)C(=O)N3CCC[C@H]3C(=O)N3CCCC[C@H]3C(=O)N[C@@H](C)C(=O)N2C1
MIC (Staphylococcus aureus [15]): 0.4 µg/mL (≈ 0.501 µM)
IC50 [16]: 3.7 µg/mL (≈ 4.63 µM)
selectivity ratio [17]: 9.3

Compound: O=C1C2=C(CCN(Cc3ccccc3)C2)N2CCN=C2N1Cc1ccc(C(F)(F)F)cc1
IC50 [16]: 0.002 µg/mL (≈ 0.00454 µM)
EC50 [12]: 1.2 µM
MIC (Staphylococcus aureus [1]): 0.002 µg/mL (≈ 0.00454 µM)
selectivity ratio [18]: 0.04
EC50 [19]: 0.72 µM
EC50 [20]: 1.9 µM
EC50 [21]: 3.97 µM
EC50 [22]: 1.14 µM
ΔTm [23]: 15.9 °C
ΔTm [24]: 23.5 °C
selectivity ratio [25]: 0.06
selectivity ratio [26]: 0.1
MIC (Staphylococcus aureus [2]): 0.5 µg/mL (≈ 1.14 µM)
MIC (Staphylococcus aureus [3]): 1 µg/mL (≈ 2.27 µM)
MIC (Staphylococcus aureus [4]): 0.5 µg/mL (≈ 1.14 µM)
MIC (Staphylococcus aureus [5]): 0.5 µg/mL (≈ 1.14 µM)
MIC (Staphylococcus aureus [6]): 0.25 µg/mL (≈ 0.568 µM)
MIC (Staphylococcus aureus [7]): 0.5 µg/mL (≈ 1.14 µM)
MIC (Staphylococcus aureus [8]): 0.5 µg/mL (≈ 1.14 µM)
MIC (Staphylococcus aureus [9]): 0.5 µg/mL (≈ 1.14 µM)
MIC (Staphylococcus aureus [10]): 0.5 µg/mL (≈ 1.14 µM)
MIC (Staphylococcus aureus [11]): 1 µg/mL (≈ 2.27 µM)

Compound: CC[C@H](C)[C@H]1C(=O)N([C@H](C)c2cccc3ccccc23)C[C@@H]2N(C(=O)NCCCC(F)(F)F)CCC(=O)N12
EC50 [12]: 1.2 µM
MIC (Staphylococcus aureus [1]): 2 µg/mL (≈ 3.76 µM)
selectivity ratio [18]: 25
EC50 [19]: 0.72 µM
EC50 [20]: 31.4 µM
EC50 [21]: > 100 µM
EC50 [22]: > 100 µM
ΔTm [23]: 13 °C
ΔTm [24]: 3 °C
selectivity ratio [25]: 29
selectivity ratio [26]: 27
MIC (Staphylococcus aureus [2]): 1 µg/mL (≈ 1.88 µM)
MIC (Staphylococcus aureus [3]): 2 µg/mL (≈ 3.76 µM)
MIC (Staphylococcus aureus [4]): 1 µg/mL (≈ 1.88 µM)
MIC (Staphylococcus aureus [5]): 1 µg/mL (≈ 1.88 µM)
MIC (Staphylococcus aureus [6]): 1 µg/mL (≈ 1.88 µM)
MIC (Staphylococcus aureus [7]): 2 µg/mL (≈ 3.76 µM)
MIC (Staphylococcus aureus [8]): 2 µg/mL (≈ 3.76 µM)
MIC (Staphylococcus aureus [9]): 2 µg/mL (≈ 3.76 µM)
MIC (Staphylococcus aureus [10]): 1 µg/mL (≈ 1.88 µM)
MIC (Staphylococcus aureus [11]): 2 µg/mL (≈ 3.76 µM)
Activity (Staphylococcus aureus [27]): Active
